Article PMC9583322, “Vicinal Diaryl-Substituted Isoxazole and Pyrazole Derivatives with In Vitro Growth Inhibitory and In Vivo Antitumor Activity” (ACS Omega, 2022)

Key:
Huh7 and MCF7 = assay: SRB cytotoxicity, summary for both cell lines; format: cell-based; settings: Homo sapiens; one value or range for Huh7 and MCF7 together; read-out: IC50 against both cell lines
Procedure: (§1) Mahlavu, FOCUS, SNU475 (1000 cell/well in 150 μL/well); Huh7, MCF7 (2500 cell/well in 150 μL/well); HepG2, Hep3B, SKBR3 (3000 cell/well in 150 μL/well); PLC-PRF-5, Hep40 (5000 cell/well in 150 μL/well); MDA-MB-231, MDA-MB-468, MCF10A (6000 cell/well in 150 μL/well); and ZR-75 (7500 cell/well in 150 μL/well) were cultured in 96-well plates and were inoculated in an incubator for 24 hours. The compounds were dissolved in dimethyl sulfoxide (DMSO) (Sigma, St Louis, MO) as a 20 mM stock solution. The treatment of cells with the compounds was done in a concentration range starting from 40 to 2.5 μM. The compounds which were below 2.5 μM were tested in a concentration range from 2.5 to 0.15 μM. End of the 72h compound treatment, the cells were fixed using 10% (v/v) trichloroacetic acid (MERCK) for an hour and washed with ddH2O, and left for air-drying. The fixed plates were stained with 50 μL of sulforhodamine B (SRB) solution (Sigma) at RT for 10 min. To remove unbound SRB dye, acetic acid was used to wash cells three times and left for drying. The protein-bound SRB was solubilized with 10 mM Tris-base (Sigma) and their absorbance was measured with a 96-well plate reader at 515 nm wavelength (ELx800, Biotek). The IC50 values of compounds were calculated in comparison with control group DMSO. Data with R^2 values larger than 0.9 are considered significant.

Huh7 = assay: SRB cytotoxicity assay; format: cell-based, human; settings: 72 h treatment
Procedure: (§2) HepG2, FOCUS, Hep3B, Mahlavu, Huh7, Hep40, and PLC-PRF-5 hepatocellular carcinoma cells; MCF-7, MDA-MB-231, MDA-MB-468, SKBR3, and ZR-75 breast cancer cells; and normal-like epithelial MCF-10A breast cells were cultured in low-glucose Dulbecco’s modified Eagle’s medium (DMEM) (Biological Industries-BI) supplemented with 10% fetal bovine serum (FBS) (Gibco/Thermo Fisher Scientific), 2 mM L-Glutamine (Gibco/Thermo Fisher Scientific), 100 Units/mL Penicillin/Streptomycin, and 0.1 mM non-essential amino acid (Gibco/Thermo Fisher Scientific). SNU475 hepatocellular carcinoma cells were maintained in RPMI (Biological Industries-BI) supplemented with 10% fetal bovine serum (FBS) (Gibco/Thermo Fisher Scientific), L-Glutamine (Gibco/Thermo Fisher Scientific), and 100 Units/mL Penicillin/Streptomycin, while ZR-75 breast cancer cells were cultured RPMI (Biological Industries-BI) supplemented with 10% fetal bovine serum (FBS) (Gibco/Thermo Fisher Scientific), 1× sodium pyruvate, and %4.5 glucose. Normal-like MCF-10A breast cells were sustained in DMEM/HAM’S F12 (Hyclone) supplemented with 10% fetal bovine serum (FBS) (Gibco/Thermo Fisher Scientific), EGF (20 ng/mL), Hydrocortisone ([…]), cholera toxin (100 ng/mL), insulin (10 μg/mL), and 100 Units/mL Penicillin/Streptomycin. The cells were cultivated at 37 °C in a humidified incubator under 5% CO2.
as §1

MCF7 = assay: SRB cytotoxicity assay; format: cell-based, human; settings: Homo sapiens, MCF7, 72 h, 72 h treatment
Procedure: as §2, §1

Mahlavu = assay: SRB cytotoxicity assay; format: cell-based, human; settings: Homo sapiens, Mahlavu, 72 h, 72 h treatment
Procedure: as §2, §1

Huh7, Mahlavu and MCF7 = assay: SRB cytotoxicity, summary for all three cell lines; format: cell-based; settings: Homo sapiens; one value or range for Huh7, Mahlavu and MCF7 together; read-out: IC50 against all three cell lines
Procedure: as §1

| Structure (SMILES) | melting point [°C] | IC50 (Huh7 and MCF7) [µM] | IC50 (Huh7) [µM] | IC50 (Huh7; Homo sapiens, Huh-7, 72 h) [µM] | IC50 (MCF7) [µM] | IC50 (Mahlavu) [µM] | IC50 (Huh7, Mahlavu and MCF7) [µM] |
| --- | --- | --- | --- | --- | --- | --- | --- |
| Cc1onc(-c2ccc(OCc3ccccc3)cc2)c1-c1ccc(Cl)cc1 [compound 9, 3-(4-(Benzyloxy)phenyl)-4-(4-chlorophenyl)-5-methylisoxazole] | 114.7 to 115.7 | ≥ 20 | > 20 | ≥ 20 | > 20 |  |  |
| Cc1cccc(COc2ccc(-c3noc(C)c3-c3ccc(Cl)cc3)cc2)c1 [compound 19, 4-(4-Chlorophenyl)-5-methyl-3-(4-((3-methylbenzyl)oxy)phenyl)isoxazole] | 119.9 to 121 | ≥ 20 |  | > 20 | > 20 |  |  |
| Cc1ccc(COc2ccc(-c3noc(C)c3-c3ccc(Cl)cc3)cc2)cc1 [compound 24, 4-(4-Chlorophenyl)-5-methyl-3-(4-((4-methylbenzyl)oxy)phenyl)isoxazole] | 116.9 to 118.5 | ≥ 20 |  | > 20 | > 20 |  |  |
| Cc1ccccc1COc1ccc(-c2noc(N)c2-c2ccc(Cl)cc2)cc1 [compound 65, 4-(4-Chlorophenyl)-3-(4-((2-methylbenzyl)oxy)phenyl)isoxazole-5-amine] | 163.1 to 165.6 |  |  | 2 | 3.6 | 3.9 | 2 to 3.9 |
| Cc1ccccc1COc1ccc(-c2c(-c3ccc(Cl)cc3)noc2C)cc1 [compound 67, 3-(4-Chlorophenyl)-5-methyl-4-(4-((2-methylbenzyl)oxy)phenyl)isoxazole] | 84.5 to 86.5 |  |  | > 20 | > 20 | > 20 | ≥ 20 |
| Cc1cc(-c2ccc(OCc3ccccc3C)cc2)n(-c2ccc(Cl)cc2)n1 [compound 69, 1-(4-Chlorophenyl)-3-methyl-5-(4-((2-methylbenzyl)oxy)phenyl)-1H-pyrazole] | 111.8 to 113.6 |  |  | 2 | 11.9 | 9.2 | 0.7 to 14.4 |
| Cc1ccccc1COc1ccc(-c2[nH]ncc2-c2ccc(Cl)cc2)cc1 [compound 71, 4-(4-Chlorophenyl)-5-(4-((2-methylbenzyl)oxy)phenyl)-1H-pyrazole] | 127.8 to 129.8 |  |  | 8.4 | 17.5 | 11 | 0.7 to 14.4 |
| Cc1ccccc1COc1ccc(-c2nn(C)cc2-c2ccc(Cl)cc2)cc1 [compound 72, 4-(4-Chlorophenyl)-1-methyl-3-(4-((2-methylbenzyl)oxy)phenyl)-1H-pyrazole] | 142.2 to 143.4 |  |  | 6.7 | 14.4 | 12 | 0.7 to 14.4 |
| Cc1cc(-c2ccc(Cl)cc2)n(-c2ccc(OCc3ccccc3C)cc2)n1 [compound 79, 5-(4-Chlorophenyl)-3-methyl-1-(4-((2-methylbenyl)oxy)phenyl)-1H-pyrazole] | 103.4 to 105.2 |  |  | 3.9 | 11.8 | 9.6 | 0.7 to 14.4 |
| Cc1ccccc1COc1ccc(-c2ccnn2-c2ccc(Cl)cc2)c(F)c1 [compound 88, 1-(4-Chlorophenyl)-5-(2-fluoro-4-((2-methylbenzyl)oxy)phenyl)-1H-pyrazole] | 131.8 to 132.8 |  |  | 1.6 | 6.4 | 3.2 | 1.6 to 6.4 |
| Cc1ccccc1CNc1ccc(-c2ccnn2-c2ccc(Cl)cc2)cc1 [compound 92, 4-(1-(4-Chlorophenyl)-1H-pyrazol-5-yl)-N-(2-methylbenzyl)aniline] | 141.5 to 142.8 |  |  | 3.6 | > 20 | 4.5 |  |
